# Results: patent US10670605B2, “Cysteine reactive probes and uses thereof” (The Scripps Research Institute, priority 2015, dated 2020)
# Key:
# Assay in all cases: Competitive isoTOP-ABPP in situ (fragment-treated cells)
# Format in all cases: cell-based
# [1] = target: cysteines in MDA-MB-231 and Ramos cells (Homo sapiens, UniProt P04406)
# Protocol: (§1) Fragments 4 and 11 were screened at 100 μM in situ. […] Site-specific engagement of electrophilic fragments was assessed by blockade of IA-alkyne probe labeling. […] Ratios for unique peptide entries were calculated for each experiment; overlapping peptides with the same modified cysteine (e.g. different charge states, MudPIT chromatographic steps or tryptic termini) were grouped together and the median ratio was reported as the final ratio (R). The peptide ratios reported by CIMAGE were further filtered to ensure the removal or correction of low quality ratios in each individual dataset. […] R values were calculated and individual datasets were filtered as described above (R value calculation and processing).
# [2] = target: cysteines in MDA-MB-231 and Ramos cells (Homo sapiens, UniProt Q02252); conditions: for isoTOP-ABPP ratio Q02252_C317: 200 μM, insitu, 231
# Protocol: as §1
# [3] = target: T1, cysteines in MDA-MB-231 and Ramos cells (Homo sapiens, UniProt A6NDU8)
# T1 sequence (A6NDU8 1-294): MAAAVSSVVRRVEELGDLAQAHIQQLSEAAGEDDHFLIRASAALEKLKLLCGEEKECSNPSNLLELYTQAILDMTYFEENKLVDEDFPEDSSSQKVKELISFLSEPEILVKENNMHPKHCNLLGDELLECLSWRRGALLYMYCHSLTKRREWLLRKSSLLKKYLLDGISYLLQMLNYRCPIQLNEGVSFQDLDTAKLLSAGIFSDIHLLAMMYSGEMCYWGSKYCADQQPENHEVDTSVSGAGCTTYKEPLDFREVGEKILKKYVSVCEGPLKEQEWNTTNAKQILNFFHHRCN
# Protocol: as §1
# [4] = target: T2, cysteines in MDA-MB-231 and Ramos cells (Homo sapiens, UniProt Q9NYL9)
# T2 sequence (Q9NYL9 1-352): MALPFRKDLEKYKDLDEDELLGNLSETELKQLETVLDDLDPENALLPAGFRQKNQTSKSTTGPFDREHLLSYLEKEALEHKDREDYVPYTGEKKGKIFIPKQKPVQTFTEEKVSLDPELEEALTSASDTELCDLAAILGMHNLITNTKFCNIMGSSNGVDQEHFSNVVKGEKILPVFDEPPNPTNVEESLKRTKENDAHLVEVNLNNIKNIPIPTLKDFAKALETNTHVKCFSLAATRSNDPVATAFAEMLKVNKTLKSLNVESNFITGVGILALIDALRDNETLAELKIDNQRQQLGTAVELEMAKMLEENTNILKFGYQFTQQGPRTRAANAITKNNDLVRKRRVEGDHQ
# Protocol: as §1
# [5] = target: cysteines in MDA-MB-231 and Ramos cells (Homo sapiens, UniProt P15121)
# Protocol: as §1
# [6] = target: T3, cysteines in MDA-MB-231 and Ramos cells (Homo sapiens, UniProt Q9NRG0)
# T3 sequence (Q9NRG0 1-131): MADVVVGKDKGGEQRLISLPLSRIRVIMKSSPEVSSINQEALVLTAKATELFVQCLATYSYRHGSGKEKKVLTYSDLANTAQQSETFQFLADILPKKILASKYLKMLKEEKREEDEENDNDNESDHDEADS
# Protocol: as §1
# [7] = target: cysteines in MDA-MB-231 and Ramos cells (Homo sapiens, UniProt P83731)
# Protocol: as §1
# [8] = target: T4, cysteines in MDA-MB-231 and Ramos cells (Homo sapiens, UniProt Q99757)
# T4 sequence (Q99757 60-166): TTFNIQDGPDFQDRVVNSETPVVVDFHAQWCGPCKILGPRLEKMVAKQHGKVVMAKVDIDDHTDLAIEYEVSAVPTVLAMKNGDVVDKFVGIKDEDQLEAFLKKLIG
# Protocol: as §1
# [9] = target: T5, cysteines in MDA-MB-231 and Ramos cells (Homo sapiens, UniProt Q9BRA2)
# T5 sequence (Q9BRA2 1-123): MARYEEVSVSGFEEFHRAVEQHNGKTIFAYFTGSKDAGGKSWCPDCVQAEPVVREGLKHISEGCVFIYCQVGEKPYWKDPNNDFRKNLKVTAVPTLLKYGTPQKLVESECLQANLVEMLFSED
# Protocol: as §1
# [10] = target: T6, cysteines in MDA-MB-231 and Ramos cells (Homo sapiens, UniProt Q9BTA9); conditions: for isoTOP-ABPP ratio Q9BTA9_C553: 200 μM, insitu, 231
# T6 sequence (Q9BTA9 1-647): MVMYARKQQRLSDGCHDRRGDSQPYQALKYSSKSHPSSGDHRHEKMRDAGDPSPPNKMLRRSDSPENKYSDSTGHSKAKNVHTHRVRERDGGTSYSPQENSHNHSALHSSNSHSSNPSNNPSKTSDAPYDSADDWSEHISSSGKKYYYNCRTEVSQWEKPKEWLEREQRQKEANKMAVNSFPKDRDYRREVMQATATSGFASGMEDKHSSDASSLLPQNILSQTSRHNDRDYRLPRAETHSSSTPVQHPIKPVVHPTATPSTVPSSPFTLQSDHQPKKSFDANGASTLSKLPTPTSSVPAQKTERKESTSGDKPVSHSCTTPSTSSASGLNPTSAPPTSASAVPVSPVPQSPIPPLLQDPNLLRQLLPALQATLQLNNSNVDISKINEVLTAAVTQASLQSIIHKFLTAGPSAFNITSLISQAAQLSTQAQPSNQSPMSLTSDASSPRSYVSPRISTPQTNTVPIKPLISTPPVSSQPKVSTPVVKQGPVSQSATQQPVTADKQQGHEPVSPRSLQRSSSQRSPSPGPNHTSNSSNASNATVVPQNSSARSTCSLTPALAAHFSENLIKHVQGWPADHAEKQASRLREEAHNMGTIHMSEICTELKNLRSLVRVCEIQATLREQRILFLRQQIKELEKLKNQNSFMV
# Protocol: as §1
# [11] = target: cysteines in MDA-MB-231 and Ramos cells (Homo sapiens, UniProt Q15365)
# Chain of cysteines in MDA-MB-231 and Ramos cells (Homo sapiens, UniProt Q15365) (Q15365 whole entry): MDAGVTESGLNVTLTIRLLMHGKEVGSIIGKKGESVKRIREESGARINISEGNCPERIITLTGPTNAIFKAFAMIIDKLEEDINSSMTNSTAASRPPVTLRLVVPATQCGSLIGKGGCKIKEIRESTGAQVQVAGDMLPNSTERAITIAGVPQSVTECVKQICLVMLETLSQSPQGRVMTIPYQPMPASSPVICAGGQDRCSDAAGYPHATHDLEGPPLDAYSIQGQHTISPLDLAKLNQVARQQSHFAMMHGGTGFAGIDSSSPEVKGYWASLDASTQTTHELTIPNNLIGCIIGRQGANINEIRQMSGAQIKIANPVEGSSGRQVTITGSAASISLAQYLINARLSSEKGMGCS
# Protocol: as §1
# Chain of cysteines in MDA-MB-231 and Ramos cells (Homo sapiens, UniProt Q02252) (Q02252 34-535): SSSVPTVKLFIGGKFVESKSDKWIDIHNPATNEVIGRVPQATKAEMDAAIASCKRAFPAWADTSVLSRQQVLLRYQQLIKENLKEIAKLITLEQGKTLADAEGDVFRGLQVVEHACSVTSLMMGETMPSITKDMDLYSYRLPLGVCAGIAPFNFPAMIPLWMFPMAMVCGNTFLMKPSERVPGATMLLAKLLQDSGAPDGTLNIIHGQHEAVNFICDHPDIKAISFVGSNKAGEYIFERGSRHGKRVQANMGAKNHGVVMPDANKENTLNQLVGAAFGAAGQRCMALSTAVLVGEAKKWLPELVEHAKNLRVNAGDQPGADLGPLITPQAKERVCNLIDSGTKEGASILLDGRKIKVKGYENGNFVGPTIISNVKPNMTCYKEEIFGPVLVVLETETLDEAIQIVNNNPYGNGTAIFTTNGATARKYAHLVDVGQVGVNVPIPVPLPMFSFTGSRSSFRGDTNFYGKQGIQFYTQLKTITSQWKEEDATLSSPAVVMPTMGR
# Chain of cysteines in MDA-MB-231 and Ramos cells (Homo sapiens, UniProt P04406) (P04406 whole entry): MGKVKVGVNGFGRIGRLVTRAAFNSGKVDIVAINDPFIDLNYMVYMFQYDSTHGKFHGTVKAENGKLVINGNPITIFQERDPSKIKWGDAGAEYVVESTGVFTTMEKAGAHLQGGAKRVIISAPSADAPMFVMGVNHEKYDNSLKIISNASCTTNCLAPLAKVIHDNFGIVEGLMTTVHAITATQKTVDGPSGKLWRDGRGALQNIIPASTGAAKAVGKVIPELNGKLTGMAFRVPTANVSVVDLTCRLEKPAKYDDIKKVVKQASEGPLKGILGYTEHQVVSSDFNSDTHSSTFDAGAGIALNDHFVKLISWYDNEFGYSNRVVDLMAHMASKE
Compound,"isoTOP-ABPP ratio P04406_C152 ([1]; 200 μM, insitu, 231)",isoTOP-ABPP ratio Q02252_C317 [2],"isoTOP-ABPP ratio A6NDU8_C179 ([3]; 200 μM, insitu, 231)","isoTOP-ABPP ratio Q9NYL9_C132 ([4]; 200 μM, insitu, 231)","isoTOP-ABPP ratio P15121_C299 ([5]; 200 μM, insitu, 231)","isoTOP-ABPP ratio Q9NRG0_C55 ([6]; 200 μM, insitu, 231)","isoTOP-ABPP ratio P83731_C6 ([7]; 200 μM, insitu, 231)","isoTOP-ABPP ratio Q99757_C90 ([8]; 200 μM, insitu, 231)","isoTOP-ABPP ratio Q9BRA2_C43 ([9]; 200 μM, insitu, 231)",isoTOP-ABPP ratio Q9BTA9_C553 [10],"isoTOP-ABPP ratio Q15365_C194 ([11]; 200 μM, insitu, 231)",also measured
COc1ccccc1OCCNC(=O)CCl [compound 28],0.8,1.1,0.8,0.7,0.8,,,,,,,
Cc1ccc(C=C(C#N)C(=O)NCCN2CCOCC2)cc1 [compound 41],0.6,0.8,0.6,0.3,0.9,0.9,0.3,0.5,0.6,1.0,0.3,
O=C(CCl)NC(=O)NC12CC3CC(CC(C3)C1)C2 [compound 12],0.9,3.2,,0.6,0.7,20.0,0.3,5.0,20.0,,1.3,
O=C(CCl)NCCc1c[nH]c2ccccc12 [compound 13],0.9,1.3,0.8,,,1.2,0.7,,20.0,1.4,0.9,"isoTOP-ABPP ratio P83731_C6 ([7]; 200 μM, insitu, ramos): 1.0; isoTOP-ABPP ratio P04406_C152 ([1]; 200 μM, insitu, ramos): 0.9; isoTOP-ABPP ratio P15121_C299 ([5]; 200 μM, insitu, ramos): 0.8; isoTOP-ABPP ratio Q9BRA2_C43 ([9]; 200 μM, insitu, ramos): 5.2; isoTOP-ABPP ratio Q15365_C194 ([11]; 200 μM, insitu, ramos): 1.4"
O=C(CCl)N1CCC(Cc2ccccc2)CC1 [compound 9],,,,,,,,,,,,"isoTOP-ABPP reactivity Q9NRG0_C55 CHRAC1 ([6]; 200 μM, insitu, 231): 2.9; isoTOP-ABPP reactivity P83731_C6 RPL24 ([7]; 200 μM, insitu, 231): 4.3; isoTOP-ABPP reactivity Q99757_C90 TXN2 ([8]; 200 μM, insitu, 231): 20.0; isoTOP-ABPP reactivity P04406_C152 GAPDH ([1]; 200 μM, insitu, 231): 1.7; isoTOP-ABPP reactivity A6NDU8_C179 C5orf51 ([3]; 200 μM, insitu, 231): 20.0; isoTOP-ABPP reactivity Q9NYL9_C132 TMOD3 ([4]; 200 μM, insitu, 231): 7.6; isoTOP-ABPP reactivity P15121_C299 AKR1B1 ([5]; 200 μM, insitu, 231): 1.4; isoTOP-ABPP reactivity Q9BRA2_C43 TXNDC17 ([9]; 200 μM, insitu, 231): 20.0; isoTOP-ABPP reactivity Q15365_C194 PCBP1 ([11]; 200 μM, insitu, 231): 10.1"
COc1ccc(C2CC(c3cccs3)=NN2C(=O)CCl)cc1 (centres unmarked) [compound 4],,,,,,,,,,,,isoTOP-ABPP reactivity Q9NRG0_C55 CHRAC1 ([6]; 100 μM in situ 231): 20.0; isoTOP-ABPP reactivity P83731_C6 RPL24 ([7]; 100 μM in situ 231): 0.7; isoTOP-ABPP reactivity Q99757_C90 TXN2 ([8]; 100 μM in situ 231): 3.6; isoTOP-ABPP reactivity P04406_C152 GAPDH ([1]; 100 μM in situ 231): 1.6; isoTOP-ABPP reactivity Q02252_C317 ALDH6A1 ([2]; 100 μM in situ 231): 14.4; isoTOP-ABPP reactivity A6NDU8_C179 C5orf51 ([3]; 100 μM in situ 231): 3.0; isoTOP-ABPP reactivity Q9NYL9_C132 TMOD3 ([4]; 100 μM in situ 231): 0.8; isoTOP-ABPP reactivity P15121_C299 AKR1B1 ([5]; 100 μM in situ 231): 1.0; isoTOP-ABPP reactivity Q9BRA2_C43 TXNDC17 ([9]; 100 μM in situ 231): 3.5; isoTOP-ABPP reactivity Q9BTA9_0553 WAC ([10]; 100 μM in situ 231): 17.8; isoTOP-ABPP reactivity Q15365_C194 PCBP1 ([11]; 100 μM in situ 231): 1.4
O=C(CCl)NC12CC3CC(CC(C3)C1)C2 [compound 21],1.3,1.5,0.9,1.4,2.7,,1.0,4.3,16.0,2.8,1.1,
